Results: US10668032B2 (SyneuRx International (Taiwan) Corp., priority 2016, dated 2020)

Legend:
[1] = system: primary cortical neuronal culture; assay: Detection of cellular reactive oxygen species (CellROX) after 3-NP in primary cortical culture; type: cell-based, rat
Procedure: Reactive oxygen species (ROS) are detected on primary cortical neuronal culture by CellROX Oxidative Reagents (catalog number 10444, Life Technologies Corp. USA). […] The cells were then exposed to 2.5 mM 3-NP for 24 hours. Subsequently, […] CellROX Reagent was added, and then incubated for […]. CellROX Green Reagent is a DNA dye, and upon oxidation, it binds to DNA; thus, its signal is localized in the nucleus and mitochondria. ROS were quantified by fluorescence intensity. The samples were observed under a laser scanning confocal microscope Zeiss LSM700 (Zeiss, Germany) equipped with filter sets to detect fluorescent signal.

[2] = system: B6SJL-Tg(SOD1*G93A)1Gur/J mice; assay: SOD1*G93A transgenic ALS mice: behavioral tasks, body weight, survival; type: in vivo, mouse
Excerpt: Disease onset of B6SJL-Tg(SOD1*G93A)1Gur/J mice occurred at around 80-90 days of age, while progressive clinical weakness followed by paralysis and death occurred by 135-140 days.
In cohort 2, the male transgenic and wild-type littermates were randomly divided into 3 groups as cohort 1: vehicle (n=5), vehicle-ALS (n=6), and drug-ALS (n=11). Disease onset occurred at around 110-120 days of age, while progressive clinical weakness followed by paralysis and death occurred at around 150-155 days.
In cohort 1, drug regimen was initiated 8 weeks after birth and continued until the end of study. […] The vehicle groups received injections of the same volume of saline.
The drug regimen for cohort 2 was the same as that for cohort 1 except the dosing was started at 10 weeks of age.
Open field is an animal behavioral task that can monitor the overall spontaneous locomotor activity. Each animal was placed in an empty test arena (60 cm×60 cm plastic boxes) for 1 hour, and its activity was assessed by VersaMax Animal Activity Monitoring System (AccuScan Instruments, Inc. Columbus Ohio, USA). Total traveling distance, number of rearing movements and rearing time were analyzed. Performance of open field was measured 1-2 times per week.
In the open field task, each animal was placed in an empty test arena (43.2 cm×21.6 cm plastic boxes) for 1 hour, and its activity was assessed by Photobeam Activity System (San Diego Instruments, USA). Total traveling and rearing activities (beam break times) were analyzed. Performance of open field was measured once per week.
Rorarod task, which requires animals to balance and walk on a rotating cylinder, is a widely used test to measure coordinated motor skills. The mice were placed on a 5-channel automatic revolving rod apparatus (PanLab/Harvard Apparatus). […] After the training sessions, motor coordination was evaluated at 16 rpm for a maximum of 5 min. […] Performance of rotarod task was measured once per week, and the longest retention time for each animal was recorded.
A metal wire mesh (0.2 cm diameter, 1 cm×1 cm wide grid) was fixed horizontally 30 cm above the table. […] The latency to fall was recorded when the animal fell, and a maximum time of 180 s was assigned for analysis. There were two sessions for each individual with a 30-min interval, and the longer time was recorded. Performance of hanging test was measured once per week.
For each animal, body weight was measured weekly starting at 10 weeks of age. […]
(§1) Date and cause of death were recorded for each mouse. Animals were closely monitored and euthanized if moribund, which was defined as the inability of mice to right themselves 30 seconds after being placed on a side, in accordance with the criteria for severe morbidity. The moribund mice were recorded as “dead”, and euthanized using carbon dioxide.

SH-SY5Y cells = assay: MPTP toxicity in SH-SY5Y cells, MTT assay; type: cell-based, human
Procedure: SH-SY5Y, the human neuroblastoma cell line, was incubated with MPTP (750 μM) for 24 hrs.

[3] = Plasma pharmacokinetics of benzoic acid after oral gavage; type: in vivo, Sprague-Dawley rats; settings: rat, single oral gavage
Procedure: The plasma concentration of benzoic acid was determined by LC/MS/MS. The chromatographic separation was carried out on a ODS 5 um column (4.6×150 mm, Biosil). The mobile phase consisted of a mixture of 1% mobile phase A and 99% mobile phase B. […] The injection volume was 50 μL and the column temperature was 23° C. All solvents were HPLC grade quality. Plots of plasma concentration of benzoic acid versus time are constructed. The fundamental pharmacokinetic parameters were obtained from non-compartmental analysis (NCA) of the plasma data using WinNonlin.

[4] = system: B6CBA-Tg(HDexon1)62Gpb/3J mice; assay: Survival of HDexon1 (R6/2) transgenic Huntington's disease mice; type: in vivo, mouse; settings: 256 mg/kg/day i.p. from 11 weeks after birth, vs vehicle-treated HDexon1 transgenic mice
Procedure: Animals used in the examples of the present disclosure were housed in an animal room under temperature control (24-25° C.) and 12:12 light-dark cycle. Standard laboratory chow and tap water were available ad libitum. The experiments procedures were approved by the Institutional Animal Care and Use Committee and were performed in compliance with national animal welfare regulations. Transgenic mice B6CBA-Tg(HDexon1)62Gpb/3J were purchased from the Jackson Laboratory (USA).
Drug regimen was initiated 11 weeks after birth, and continued until the end of study. […] The mice of vehicle group received injections of the same volume of saline.
as §1

[5] = 256 mg/kg/day i.p., vs ALS mice treated with vehicle
[6] = NaBen 287.9 mg/kg + Li2CO3 74.2 mg/kg or LiBen 255.3 mg/kg

O=C([O-])c1ccccc1.[Li+] [lithium benzoate]
ROS reduction effect compared with sodium benzoate and lithium chloride ([1]; 0.5 mM each): much more significant
ROS production induced by 3-NP ([1]; 0.5 mM, incubated 24 hours before 3-NP): back to the basal level
ROS production induced by 3-NP ([1]; lithium benzoate 0.5, 1 or 3 mM 24 h, then 2.5 mM 3-NP 24 h): significantly reduced
proportion of mice surviving over time [2, 5]: improved
weight change [2, 5]: improved
hind limb functions (number of rearing movements, rearing time; open field) ([2]; cohort 1, female, 256 mg/kg/day i.p. from 8 weeks, about 90 to about 130 days of age, vs saline ALS mice): significantly improved
motor functions (hanging test, rotarod test, rearing activity, traveling activity) ([2]; cohort 2, male, 256 mg/kg/day i.p. from 10 weeks, about 133 to about 147 days of age, vs saline ALS mice): improved
cell survival improvement compared with sodium benzoate and lithium chloride (SH-SY5Y cells; 1 mM each, MPTP 750 μM): better performance of cell survival improvement than the other two groups
dose at which the protective effect was most obvious (SH-SY5Y cells; 0.3, 1, 3 mM tested, MPTP): 1 mM
AUC Extr of benzoic acid [3, 6]: 2.63%
AUCInf of benzoic acid [3, 6]: 62,874 hr * ng/mL
AUClast of benzoic acid [3, 6]: 62,059 hr * ng/mL
Cmax of benzoic acid [3, 6]: 109,321 ng/mL
MRT of benzoic acid [3, 6]: 45 min
Tmax of benzoic acid ([3]; NaBen 287.9 mg/kg + Li2CO3 74.2 mg/kg or LiBen 255.3 mg/kg (same molarity)): 11.4 min
proportion of mice surviving over time [4]: improved
